Reference: ChEMBL document CHEMBL3259812, “Structural modifications of 4-aryl-4-oxo-2-aminylbutanamides and their acetyl- and butyrylcholinesterase inhibitory activity. Investigation of AChE-ligand interactions by docking calculations and molecular dynamics simulations” (Eur J Med Chem, 2014)
Calls of active or inactive are those of the source. No cut-off for these calls is given here.

How the values were obtained:
Cholinesterase [1] = target: T1, Cholinesterase (Equus caballus, UniProt P81908)
Description: (§1) Inhibition of horse serum BChE using butyrylthiocholine iodide as substrate preincubated for 35 mins followed by enzyme addition measured after 3 mins by Ellman's method

[2] = target: Cholinesterase (Equus caballus) (UniProt P81908); experiment: Inhibition of horse serum BChE using butyrylthiocholine iodide as substrate assessed as residual activity at 15 uM preincubated for 35 mins followed by enzyme addition measured after 3 mins by Ellman's method relative to control
[3] = target: Cholinesterase (Equus caballus) (UniProt P81908); experiment: Inhibition of horse serum BChE using butyrylthiocholine iodide as substrate assessed as residual activity at 40 uM preincubated for 35 mins followed by enzyme addition measured after 3 mins by Ellman's method relative to control
[4] = target: Cholinesterase (Equus caballus) (UniProt P81908); experiment: Inhibition of horse serum BChE using butyrylthiocholine iodide as substrate assessed as residual activity at 30 uM preincubated for 35 mins followed by enzyme addition measured after 3 mins by Ellman's method relative to control
[5] = Stability of the compound; assay type: physicochemical
Electrophorus electricus [6] = experiment: Inhibition of electric eel acetylcholinesterase type VI-S using acetylthiocholine iodide as substrate assessed as residual activity at 20 uM preincubated for 35 mins followed by enzyme addition measured after 3 mins by Ellman's method relative to control
Cholinesterase [7] = target: T1, Cholinesterase; remark: listed apart in the source
Description: as §1

[8] = Mixed type inhibition of electric eel acetylcholinesterase type VI-S using acetylthiocholine iodide as substrate assessed as enzyme-inhibitor complex by Lineweaver-Burk plot analysis; design: species or system Electrophorus electricus
Electrophorus electricus [9] = experiment: Reversible inhibition of electric eel acetylcholinesterase type VI-S using acetylthiocholine iodide as substrate by Lineweaver-Burk plot analysis
Electrophorus electricus [10] = experiment: Inhibition of electric eel acetylcholinesterase type VI-S using acetylthiocholine iodide as substrate assessed as residual activity at […] preincubated for 35 mins followed by enzyme addition measured after 3 mins by Ellman's method relative to control
Electrophorus electricus [11] = experiment: Inhibition of electric eel acetylcholinesterase type VI-S using acetylthiocholine iodide as substrate assessed as residual activity at 8.5 uM preincubated for 35 mins followed by enzyme addition measured after 3 mins by Ellman's method relative to control
[12] = target: Cholinesterase (Equus caballus) (UniProt P81908); experiment: Inhibition of horse serum BChE using butyrylthiocholine iodide as substrate assessed as residual activity at 20 uM preincubated for 35 mins followed by enzyme addition measured after 3 mins by Ellman's method relative to control
Electrophorus electricus [13] = experiment: Inhibition of electric eel acetylcholinesterase type VI-S using acetylthiocholine iodide as substrate assessed as residual activity at 15 uM preincubated for 35 mins followed by enzyme addition measured after 3 mins by Ellman's method relative to control
Electrophorus electricus [14] = experiment: Inhibition of electric eel acetylcholinesterase type VI-S using acetylthiocholine iodide as substrate assessed as residual activity at 25 uM preincubated for 35 mins followed by enzyme addition measured after 3 mins by Ellman's method relative to control
[15] = target: Cholinesterase (Equus caballus) (UniProt P81908); experiment: Inhibition of horse serum BChE using butyrylthiocholine iodide as substrate assessed as residual activity at 10 uM preincubated for 35 mins followed by enzyme addition measured after 3 mins by Ellman's method relative to control

T1 sequence (P81908 whole entry): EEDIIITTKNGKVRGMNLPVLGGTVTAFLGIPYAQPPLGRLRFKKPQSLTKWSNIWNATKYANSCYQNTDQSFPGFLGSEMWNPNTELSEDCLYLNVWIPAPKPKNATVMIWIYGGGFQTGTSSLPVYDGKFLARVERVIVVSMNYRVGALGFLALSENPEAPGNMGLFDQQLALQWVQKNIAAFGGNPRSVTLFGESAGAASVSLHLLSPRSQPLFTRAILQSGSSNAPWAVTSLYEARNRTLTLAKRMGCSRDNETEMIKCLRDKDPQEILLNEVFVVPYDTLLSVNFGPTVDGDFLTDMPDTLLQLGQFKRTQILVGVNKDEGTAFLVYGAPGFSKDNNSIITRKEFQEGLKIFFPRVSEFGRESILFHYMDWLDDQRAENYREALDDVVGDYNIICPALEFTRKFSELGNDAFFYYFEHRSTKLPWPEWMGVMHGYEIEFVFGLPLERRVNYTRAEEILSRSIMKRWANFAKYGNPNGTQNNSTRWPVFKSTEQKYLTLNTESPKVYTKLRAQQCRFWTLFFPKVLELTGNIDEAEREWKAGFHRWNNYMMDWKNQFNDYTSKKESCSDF
Sequence of Cholinesterase (Equus caballus) (P81908 whole entry): as above

Molecule `CC(C)c1ccc(C(=O)CC(C(=O)NC2CCCCC2)N2CCOCC2)c(C(C)C)c1` (centres undefined) has an IC50 (Cholinesterase [1]) of over 20 µM.
In the case of `CC(C)c1ccc(C(=O)CC(C(=O)Nc2ccccc2)N2CCCCC2)c(C(C)C)c1` (centres undefined), the Activity [2] is reported as 60.1%.
Work on `CC(C)c1ccc(C(=O)CC(C(=O)Nc2ccccc2)N2CCOCC2)cc1` (centres undefined) yielded an Activity [3] of 72.8%.
In the case of `CC(C)c1ccc(C(=O)CC(C(=O)Nc2ccccc2)n2ccnc2)cc1` (centres undefined), the Activity [4] is reported as 90%.
`O=C(CC(C(=O)Nc1ccccc1)N1CCCCC1)c1cccc2c1CCCC2` (centres undefined) gave an Activity [2] of 78.5%.
With `O=C(CC(C(=O)Nc1ccccc1)N1CCOCC1)c1cccc2c1CCCC2` (centres undefined) the Activity [3] was 87%.
For `O=C(CC(C(=O)Nc1ccccc1)n1ccnc1)c1cccc2c1CCCC2` (centres undefined), the Activity [3] was 83%.
With `COc1cc(NC(=O)C(CC(=O)c2ccc(C(C)C)cc2)N2CCCCC2)cc(OC)c1` (racemic) the Stability [5] was “Unstable”.
In the case of `COc1cc(NC(=O)C(CC(=O)c2ccc(C(C)C)cc2)n2ccnc2)cc(OC)c1` (racemic), the IC50 (Cholinesterase [1]) is reported as over 20 µM.
Molecule `COc1cc(NC(=O)C(CC(=O)c2ccc(C(C)C)cc2)N2CCOCC2)cc(OC)c1` (racemic) has an IC50 (Cholinesterase [1]) of over 20 µM.
Work on `COc1cc(NC(=O)C(CC(=O)c2ccc(C(C)C)cc2)N2CCN(C)CC2)cc(OC)c1` (racemic) yielded an IC50 (Cholinesterase [1]) of over 20 µM and an Activity (Electrophorus electricus [6]) of 76.7%.
With `CC(C)c1ccc(NC(=O)C(CC(=O)c2ccc(C(C)C)cc2)N2CCCCC2)cc1` (racemic) the Stability [5] was “Unstable”.
Molecule `CC(C)c1ccc(NC(=O)C(CC(=O)c2ccc(C(C)C)cc2)n2ccnc2)cc1` (racemic) has an IC50 (Cholinesterase [1]) of over 20 µM.
For `CC(C)c1ccc(NC(=O)C(CC(=O)c2ccc(C(C)C)cc2)N2CCOCC2)cc1` (racemic), the IC50 (Cholinesterase [1]) was over 20 µM.
Molecule `COc1ccc(NC(=O)C(CC(=O)c2ccc(C(C)C)cc2C(C)C)N2CCCCC2)cc1OC` (racemic) has an IC50 (Cholinesterase [1]) of over 7.5 µM.
`COc1ccc(NC(=O)C(CC(=O)c2ccc(C(C)C)cc2C(C)C)N2CCN(C)CC2)cc1OC` (racemic) gave an IC50 (Cholinesterase [1]) of 5.26 µM.
For `CC(C)c1ccc(NC(=O)C(CC(=O)c2ccc(C(C)C)cc2C(C)C)N2CCCCC2)cc1` (racemic), the IC50 (Cholinesterase [7]) was “ND(Insoluble)”, the Ki [8] was 520 nM and the inhibition (Electrophorus electricus [9]) was “Active”.
For `CC(C)c1ccc(NC(=O)C(CC(=O)c2ccc(C(C)C)cc2C(C)C)n2ccnc2)cc1` (racemic), the IC50 (Cholinesterase [1]) was over 20 µM.
In the case of `CC(C)c1ccc(NC(=O)C(CC(=O)c2ccc(C(C)C)cc2C(C)C)N2CCN(C)CC2)cc1` (racemic), the IC50 (Cholinesterase [1]) is reported as 0.74 µM and the Activity (Electrophorus electricus [10]) is reported as 43.6%.
In the case of `CC(C)c1ccc(C(=O)CC(C(=O)NC2CCCCC2)N2CCN(C)CC2)c(C(C)C)c1` (racemic), the IC50 (Cholinesterase [1]) is reported as 2.25 µM.
In the case of `O=C(CC(C(=O)NC1CCCCC1)N1CCCCC1)c1cccc2c1CCCC2` (racemic), the IC50 (Cholinesterase [1]) is reported as over 20 µM.
`O=C(CC(C(=O)NC1CCCCC1)n1ccnc1)c1cccc2c1CCCC2` (racemic) showed an IC50 (Cholinesterase [1]) of over 20 µM.
In the case of `O=C(CC(C(=O)NC1CCCCC1)N1CCOCC1)c1cccc2c1CCCC2` (racemic), the IC50 (Cholinesterase [7]) is reported as “ND(Insoluble)”.
In the case of `CC(C)c1ccc(NC(=O)C(CC(=O)c2cccc3c2CCCC3)N2CCCCC2)cc1` (racemic), the IC50 (Cholinesterase [7]) is reported as “ND(Insoluble)”.
With `CC(C)c1ccc(NC(=O)C(CC(=O)c2cccc3c2CCCC3)n2ccnc2)cc1` (racemic) the IC50 (Cholinesterase [1]) was over 20 µM.
For `CC(C)c1ccc(NC(=O)C(CC(=O)c2cccc3c2CCCC3)N2CCOCC2)cc1` (racemic), the IC50 (Cholinesterase [1]) was over 15 µM.
Molecule `CC(C)c1ccc(NC(=O)C(CC(=O)c2cccc3c2CCCC3)N2CCN(C)CC2)cc1` (racemic) has an Activity (Electrophorus electricus [11]) of 86.5% and an IC50 (Cholinesterase [1]) of 10.8 µM.
`CC(C)c1ccc(C(=O)CC(C(=O)Nc2ccccc2)N2CCC(Cc3ccccc3)CC2)cc1` (racemic) showed an IC50 (Cholinesterase [1]) of over 20 µM.
`COc1cc(NC(=O)C(CC(=O)c2ccc(C(C)C)cc2)N2CCN(CCN(C)C)CC2)cc(OC)c1` (racemic) gave an IC50 (Cholinesterase [1]) of over 20 µM.
For `CC(C)c1ccc(C(=O)CC(C(=O)NC2CCCCC2)N2CCCCC2)c(C(C)C)c1` (racemic), the Activity [12] was 72.7%.
In the case of `CC(C)c1ccc(C(=O)CC(C(=O)NC2CCCCC2)N2CCCCC2)cc1` (racemic), the Activity [12] is reported as 65% and the Activity (Electrophorus electricus [13]) is reported as 63.1%.
Molecule `CC(C)c1ccc(C(=O)CC(C(=O)NC2CCCCC2)N2CCN(C)CC2)cc1` (racemic) has an Activity (Electrophorus electricus [14]) of 86.2% and an Activity [12] of 66.2%.
`CC(C)c1ccc(C(=O)CC(C(=O)NC2CCCCC2)N2CCOCC2)cc1` (racemic) showed an Activity (Electrophorus electricus [14]) of 85.1% and an Activity [15] of 46.8%.
For `CC(C)c1ccc(C(=O)CC(C(=O)NC2CCCCC2)n2ccnc2)c(C(C)C)c1` (racemic), the Activity [12] was 65.8%.
With `CC(C)c1ccc(C(=O)CC(C(=O)NC2CCCCC2)n2ccnc2)cc1` (racemic) the Activity [12] was 76% and the Activity (Electrophorus electricus [13]) was 65.3%.
In the case of `CC(C)c1ccc(NC(=O)C(CC(=O)c2ccc(C(C)C)cc2)N2CCN(C)CC2)cc1` (racemic), the Activity [2] is reported as 72.4%.
With `CC(C)c1ccc(NC(=O)C(CC(=O)c2ccc(C(C)C)cc2C(C)C)N2CCOCC2)cc1` (racemic) the Activity (Electrophorus electricus [10]) was 44.4% and the Activity [15] was 73.6%.
In the case of `CC(C)c1ccc2c(c1C(=O)CC(C(=O)NC1CCCCC1)N1CCCCC1)CCCC2` (racemic), the Activity [12] is reported as 61.5%.
With `CC(C)c1ccc2c(c1C(=O)CC(C(=O)NC1CCCCC1)N1CCN(C)CC1)CCCC2` (racemic) the Activity [12] was 39.1%.
Molecule `CC(C)c1ccc2c(c1C(=O)CC(C(=O)NC1CCCCC1)N1CCOCC1)CCCC2` (racemic) has an Activity [12] of 75.2%.
`CC(C)c1ccc2c(c1C(=O)CC(C(=O)NC1CCCCC1)n1ccnc1)CCCC2` (racemic) showed an Activity [12] of 52.2%.
With `CN1CCN(C(CC(=O)c2cccc3c2CCCC3)C(=O)NC2CCCCC2)CC1` (racemic) the Activity [12] was 56.7%.
With `COc1ccc(NC(=O)C(CC(=O)c2ccc(C(C)C)cc2C(C)C)N2CCOCC2)cc1OC` (racemic) the Activity [15] was 62.4%.
Work on `COc1ccc(NC(=O)C(CC(=O)c2ccc(C(C)C)cc2C(C)C)n2ccnc2)cc1OC` (racemic) yielded an Activity [12] of 78.4%.
